Measurements published in US20260007756A1, “COMPOUND AND USE THEREOF” (COHERENT BIOPHARMA (SUZHOU) LIMITED, priority 2022, published 2026).

Columns and labels:
[1] = tested on: human liver cancer HepG2 cell subcutaneous xenograft tumor; assay: Pharmacodynamic assessment, HepG2 xenograft model; type: in vivo, BALB/c nude mouse; conditions: 4 mg/kg iv biw×3, day 36 after grouping
Procedure: Objective: Pre-clinical assessment of the efficacy of CR202 series of compounds in BALB/c nude mouse model with human liver cancer HepG2 cell subcutaneous xenograft tumor with no FOLR1 or PSMA receptor expression.
Procedures: 0.1 mL (10×10^6 cells) of HepG2 cells was subcutaneously inoculated on the right back of each mouse, and the mice were randomized into a modeling control group and treatment groups after the mean tumor volume was approximately 100-150 mm^3. The treatment was started on the first day of grouping. Before the start of administration, the animals were weighed, and the tumor volume was measured with a vernier caliper. After the grafting of tumor cells, the routine monitoring included the effect on tumor growth and the effect of treatment on the normal behavior of the animals, specifically the activity, food and water intake, weight gain or loss, the eyes, the hair, and other abnormal conditions. After the administration was started, the body weight and tumor size of the mice were measured periodically. The calculation formula for tumor volume: Tumor volume V (mm^3)=1/2×(a×b^2) (where a denotes the long diameter and b notes the short diameter). The calculation formula for the tumor growth inhibition, TGI (%), is TGI %=(1−T/C)×100% (T and C are the mean tumor volume of the treatment group and control group, respectively, at a particular time point).

[2] = Single-dose PK assessment, tumor concentration in HT-29 xenograft mice; type: in vivo, BALB/c nude male mouse; conditions: 2 mg/kg CR20274 single tail vein injection
Procedure: Objective: Single-dose PK assessment of compounds CR20214 and CR20274 in BALB/c nude male mouse model with human colorectal cancer HT-29 cell subcutaneous xenograft.
Procedures: HT-29 cells were grafted subcutaneously on the right back of the mice (purchased from GemPharmatech Co., Ltd., weighing 20-25 g, male, aged 45-60 days), and the mice were randomized when the mean tumor volume reached about 300 mm^3. 6.25 mg/kg of CR20214 and 2 mg/kg of CR20274 were given to the HT-29 tumor-bearing mice in a single dose by tail vein injection. The tumors were taken at […], 0.25, 0.5, 1, 2, 4, 8, 24, 48 and 72 h post-dose, ground, and homogenized. The homogenate was extracted, and after centrifugation, the supernatants were injected into a triple quadrupole tandem mass spectrometer to determine the CR20274 content in the tumors.

CC[C@@H]1C(=O)N(C)c2cnc(Nc3ccc(-c4cn([C@H]5CC[C@@H](NCCOCCC#Cc6cccc7c6CN(C6CCC(=O)NC6=O)C7=O)CC5)nn4)cc3OC)nc2N1C1CCCC1 (some centres unmarked) [CR20274]
Mean tumor volume [1]: 1329.84 mm^3 | TGI [1]: 22.99% | Concentration of CR20274 in tumors (C2) ([2]; 0.25 h): 0.206 nmol/g | Concentration of CR20274 in tumors (C2) ([2]; 0.5 h): 0.222 nmol/g | Concentration of CR20274 in tumors (C2) ([2]; 1 h): 0.191 nmol/g | Concentration of CR20274 in tumors (C2) ([2]; 2 h): 0.180 nmol/g | Concentration of CR20274 in tumors (C2) ([2]; 4 h): 0.164 nmol/g | Concentration of CR20274 in tumors (C2) ([2]; 8 h): 0.154 nmol/g | Concentration of CR20274 in tumors (C2) ([2]; 24 h): 0.104 nmol/g | Concentration of CR20274 in tumors (C2) ([2]; 48 h): 0.064 nmol/g | Concentration of CR20274 in tumors (C2) ([2]; 72 h): 0.044 nmol/g
